The subject of one test is brain. In words: Matured TTM-001 and TTM-002 variants, NGS enrichment in mouse brain. Format: in vivo, mice. The conditions noted are these: relative to AAV9 control.
The test system of test [1] is brains, heart, liver, muscle, and DRG of the NHPs. In words: Maturation of TTM-001 and TTM-002 capsids, NGS enrichment in NHP tissues. In kind it is in vivo. The conditions noted are these: relative to AAV9 control. The method, boiled down:
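Variants carry mutations within and flanking the loop IV peptide insert: positions 450–466 were triplet-randomized, while positions 449–466 received low-frequency point mutations. The combined pool went into two NHPs, and each peptide was scored by NGS enrichment ratio against AAV9.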

The mark [2] stands for this setting: NGS fold-enrichment of matured AAV capsid variants, NHP brain, RNA.
The mark [3] stands for this setting: NGS fold-enrichment, mouse brain.
Where [4] appears, read: NGS fold-enrichment of RNA, NHP brain.
Setting [5] is: NGS fold-enrichment, NHP liver DNA.
[6] abbreviates: NGS fold-enrichment, NHP liver RNA.
The mark [7] stands for this setting: NGS fold-enrichment, NHP muscle.

Consider KTVNGGGSPHSKAQNQQS, for which the “Fold Enrichment relative to AAV9, Brain (Mouse)” value with brain (NGS fold-enrichment, brain of mice) stood at 61.847 fold. Further, the “Fold Enrichment relative to AAV9, DRG (NHP)” value in test [1] (NGS fold-enrichment, DRG of NHPs) amounted to 0.062 fold. Besides, the “Fold Enrichment relative to AAV9, Brain (NHP)” value in test [1] (NGS fold-enrichment, RNA, brain of NHPs) amounted to 59.871 fold. Moreover, the “Fold Enrichment relative to AAV9, Heart (NHP)” value in test [1] (NGS fold-enrichment, heart of NHPs) worked out at 0.020 fold. Further, in test [1] (NGS fold-enrichment, liver DNA of NHPs), the “Fold Enrichment relative to AAV9, Liver DNA (NHP)” value is reported as 0.185 fold. Besides, in test [1] (NGS fold-enrichment, liver RNA of NHPs), the “Fold Enrichment relative to AAV9, Liver RNA (NHP)” value came out at 0.080 fold. Also, in test [1] (NGS fold-enrichment, muscle of NHPs), the “Fold Enrichment relative to AAV9, Muscle (NHP)” value is reported as 0.000 fold.
On to KTVNGGGSPHSKAQHQQT, for which, in the test on brain (mouse brain), the “Fold Enrichment relative to AAV9, Brain (Mouse)” value worked out at 138.544 fold. In test [1] (setting [2]), the “Fold Enrichment relative to AAV9, Brain (NHP)” value came to 58.602 fold. The “Fold Enrichment relative to AAV9, DRG (NHP)” value in test [1] (NHP DRG) was 0.729 fold. In addition, in test [1] (NHP heart), the “Fold Enrichment relative to AAV9, Heart (NHP)” value turned out to be 0.000 fold. Also, the “Fold Enrichment relative to AAV9, Liver DNA (NHP)” value in test [1] (NHP liver, DNA) is listed as 0.043 fold. For the same sequence, the “Fold Enrichment relative to AAV9, Liver RNA (NHP)” value in test [1] (NHP liver, RNA) is recorded as 0.000 fold. Also, the “Fold Enrichment relative to AAV9, Muscle (NHP)” value in test [1] (NHP muscle) came out at 0.000 fold.
For KTINGSGSPHSKAQGILT, the “Fold Enrichment relative to AAV9, Brain (Mouse)” value with brain (mouse brain) is on record as 102.631 fold. Further, the “Fold Enrichment relative to AAV9, Brain (NHP)” value in test [1] (setting [2]) worked out at 58.418 fold. The “Fold Enrichment relative to AAV9, DRG (NHP)” value in test [1] (NHP DRG) is recorded as 0.000 fold. The “Fold Enrichment relative to AAV9, Heart (NHP)” value in test [1] (NHP heart) is given as 0.005 fold. Moreover, the “Fold Enrichment relative to AAV9, Liver DNA (NHP)” value in test [1] (NHP liver, DNA) worked out at 0.192 fold. For the same sequence, in test [1] (NHP liver, RNA), the “Fold Enrichment relative to AAV9, Liver RNA (NHP)” value came out at 0.569 fold. Moreover, the “Fold Enrichment relative to AAV9, Muscle (NHP)” value in test [1] (NHP muscle) was 0.010 fold.
KTREISGSPHSKAQNQQT: the “Fold Enrichment relative to AAV9, Brain (Mouse)” value in the test with brain (mouse brain) amounted to 51.696 fold. Also, in test [1] (setting [2]), the “Fold Enrichment relative to AAV9, Brain (NHP)” value worked out at 59.027 fold. For the same sequence, the “Fold Enrichment relative to AAV9, DRG (NHP)” value in test [1] (NHP DRG) was 0.000 fold. Besides, the “Fold Enrichment relative to AAV9, Heart (NHP)” value in test [1] (NHP heart) is on record as 0.042 fold. For the same sequence, the “Fold Enrichment relative to AAV9, Liver DNA (NHP)” value in test [1] (NHP liver, DNA) turned out to be 0.269 fold. In addition, in test [1] (NHP liver, RNA), the “Fold Enrichment relative to AAV9, Liver RNA (NHP)” value is listed as 0.356 fold. For the same sequence, the “Fold Enrichment relative to AAV9, Muscle (NHP)” value in test [1] (NHP muscle) is 0.224 fold.
KTTNGHDSPHKSGQNQQG: in the test on brain (setting [3]), the “Fold Enrichment relative to AAV9, Brain (Mouse)” value is given as 10.555 fold. Further, the “Fold Enrichment relative to AAV9, Brain (NHP)” value in test [1] (setting [4]) stood at 85.113 fold. Also, the “Fold Enrichment relative to AAV9, DRG (NHP)” value in test [1] (NGS fold-enrichment, NHP DRG) is 0.000 fold. The “Fold Enrichment relative to AAV9, Heart (NHP)” value in test [1] (NGS fold-enrichment, NHP heart) is reported as 0.107 fold. For the same sequence, the “Fold Enrichment relative to AAV9, Liver DNA (NHP)” value in test [1] (setting [5]) amounted to 0.017 fold. For the same sequence, in test [1] (setting [6]), the “Fold Enrichment relative to AAV9, Liver RNA (NHP)” value was 0.000 fold. Moreover, in test [1] (setting [7]), the “Fold Enrichment relative to AAV9, Muscle (NHP)” value turned out to be 0.000 fold.
Take KTEGKHDSPHKSGQNQQT: the “Fold Enrichment relative to AAV9, Brain (Mouse)” value in the test on brain (setting [3]) is 10.345 fold. For the same sequence, in test [1] (setting [4]), the “Fold Enrichment relative to AAV9, Brain (NHP)” value is recorded as 98.384 fold. In addition, the “Fold Enrichment relative to AAV9, DRG (NHP)” value in test [1] (NGS fold-enrichment, NHP DRG) stood at 0.000 fold. Also, the “Fold Enrichment relative to AAV9, Heart (NHP)” value in test [1] (NGS fold-enrichment, NHP heart) amounted to 0.056 fold. In addition, the “Fold Enrichment relative to AAV9, Liver DNA (NHP)” value in test [1] (setting [5]) is recorded as 0.000 fold. Besides, in test [1] (setting [6]), the “Fold Enrichment relative to AAV9, Liver RNA (NHP)” value is 0.000 fold. The “Fold Enrichment relative to AAV9, Muscle (NHP)” value in test [1] (setting [7]) turned out to be 0.000 fold.
As for KTINGSGSPHSKAQERST, in the test with brain (mouse brain), the “Fold Enrichment relative to AAV9, Brain (Mouse)” value is reported as 87.656 fold. Also, the “Fold Enrichment relative to AAV9, Brain (NHP)” value in test [1] (setting [2]) is given as 58.021 fold. Further, the “Fold Enrichment relative to AAV9, DRG (NHP)” value in test [1] (NHP DRG) amounted to 0.000 fold. Also, the “Fold Enrichment relative to AAV9, Heart (NHP)” value in test [1] (NHP heart) came to 0.011 fold. Besides, in test [1] (NHP liver, DNA), the “Fold Enrichment relative to AAV9, Liver DNA (NHP)” value was 0.409 fold. The “Fold Enrichment relative to AAV9, Liver RNA (NHP)” value in test [1] (NHP liver, RNA) turned out to be 0.829 fold. Moreover, the “Fold Enrichment relative to AAV9, Muscle (NHP)” value in test [1] (NHP muscle) worked out at 0.005 fold.
Take KTINGSGSPHSKAQKVIT: the “Fold Enrichment relative to AAV9, Brain (Mouse)” value in the test on brain (mouse brain) is listed as 95.147 fold. Further, the “Fold Enrichment relative to AAV9, Brain (NHP)” value in test [1] (setting [2]) is 53.273 fold. Also, the “Fold Enrichment relative to AAV9, DRG (NHP)” value in test [1] (NHP DRG) is 0.000 fold. In addition, the “Fold Enrichment relative to AAV9, Heart (NHP)” value in test [1] (NHP heart) is reported as 0.000 fold. Besides, in test [1] (NHP liver, DNA), the “Fold Enrichment relative to AAV9, Liver DNA (NHP)” value is listed as 0.402 fold. Also, the “Fold Enrichment relative to AAV9, Liver RNA (NHP)” value in test [1] (NHP liver, RNA) is 0.357 fold. Moreover, in test [1] (NHP muscle), the “Fold Enrichment relative to AAV9, Muscle (NHP)” value is reported as 0.000 fold.

The values are drawn from patent US20260250318A1, “COMPOSITIONS AND METHODS FOR CROSSING THE BLOOD BRAIN BARRIER” (VOYAGER THERAPEUTICS, INC., priority 2022, published 2026).
